Assay results published in patent publication US20110195892A1, “Artifical Pulmonary Surfactant Compositions” (priority 2005, published 2011).
Square brackets hold non-standard residues; d marks the D form. Peptide text beside a SMILES is read from it.

Tests used:
erythrocyte = format: cell-based
Protocol: The hemolytic activity of each peptide was measured in the way as will be described hereinafter.
Each peptide (ca. 1 mg) was dissolved in 20 (l of 100% acetic acid and diluted with phosphate buffer to reach a total amount of 5 ml. The resulting solution was measured for its absorbency (280 nm) to determine its concentration. The solution was then used for experiments in situ by dilution with phosphate buffer.
A blood sample (ca. 3 ml) was centrifuged at 2,000 rpm at 4° C. for 10 minutes and the supernatant was removed to form an erythrocyte sample. To the erythrocyte sample was added 1 ml of phosphate buffer, and the resulting solution was stirred well, followed by centrifugation in the manner as described above. These procedures were repeated three times to obtain the erythrocyte alone. Moreover, 1 ml of phosphate buffer was added to the resulting erythrocyte, and the resulting mixture was stirred well, followed by distributing it by 60 μl to microtubes and centrifuging to remove the supernatant therefrom. The resulting erythrocyte was in turn used for further experiments.
The peptide and a protein solution were then added by 1 ml to the erythrocyte sample, and the resulting solution was stirred well, followed by allowing it to stand at 25° C. for 60 minutes. Thereafter, the tubes were centrifuged to collect the supernatant only (100 μl) which was in turn measured at an absorbency of 542 nm. The supernatant was then returned to each tube and a drop of surfactant Triton® X was added to each tube, followed by stirring it well and measuring for its absorbency at 542 nm.

[1] = Wilhelmy tensiometer; Japanese Patent Publication No. 2004-305006 A1; cited from earlier work

Compound | hemolytic activity (in words) (erythrocyte) | hemolytic property (erythrocyte) | surface tension-surface area curve (hysteresis curve) compared with Surfacten [1] | hemolytic activity of the peptide itself compared to peptide Hel 13-5 (erythrocyte)
H-KLLKLLLKLWLKLLKLLL-OH [Hel 13-5, NH2-Lys Leu Leu Lys Leu Leu Leu Lys Leu Trp Leu Lys Leu Leu Lys Leu Leu Leu-COOH] | strong hemolytic activity | does not demonstrate a hemolytic property | equal curve to that of Surfacten® | 
CC(C)C[C@H](NC(=O)[C@H](CC(C)C)NC(=O)[C@H](CC(C)C)NC(=O)[C@H](CCCCN)NC(=O)[C@@H](CC(C)C)NC(=O)[C@H](CC(C)C)NC(=O)[C@H](CCCCN)NC(=O)[C@H](CC(C)C)NC(=O)[C@H](Cc1c[nH]c2ccccc12)NC(=O)[C@H](CC(C)C)NC(=O)[C@@H](CCCCN)NC(=O)[C@@H](CC(C)C)NC(=O)[C@H](CC(C)C)NC(=O)[C@H](CC(C)C)NC(=O)[C@H](CCCCN)NC(=O)[C@H](CC(C)C)NC(=O)[C@H](CC(C)C)NC(=O)[C@@H](N)CCCCN)C(=O)O [Hel 13-5D3, NH2-Lys Leu Leu Lys Leu Leu D-Leu D-Lys Leu Trp Leu Lys D-Leu Leu Lys Leu Leu Leu-COOH] (H-KLLKLL[dL][dK]LWLKL[dL]KLLL-OH) |  |  |  | lower by several times
